Results published in BindingDB's records for patent US20240343720 (Xizang Haisco Pharmaceutical, 2024).

Target: AP2-associated protein kinase 1 (Homo sapiens, UniProt Q2M2I8)
Assay: In Vitro AAK1 Enzyme Activity Assay
Description: Compound stock solution (concentration: 10 mM, dissolved in DMSO) was diluted with DMSO to 0.2 mM and then diluted with DMSO in 5-fold gradient to obtain compound solutions with 10 concentrations. Subsequently, the compound solutions with different concentrations were diluted 50-fold in 1×kinase reaction buffer (containing 40 mM Tris, 20 mM MgCl2, 0.1% BSA and 0.5 mM DTT) for later use. AAK1 (Signalchem, Cat #A01-11G-10) was diluted with 1×kinase reaction buffer to 2-fold the final concentration (final concentrations: 30 nM and 28 nM). AAK1 was added to a 384-well white plate at 2 μL/well, and the compounds were then added at 1 μL/well. The plate was sealed with a plate-sealing film, centrifuged at 1000 rpm for 30 seconds and then placed at room temperature for 10 minutes. A mixed solution of ATP (Promega, Cat #V914B) and substrate Micro2 (GenScript, Cat #PE0890) was formulated at 4-fold the final concentration (for AAK1, the corresponding final concentrations of ATP: 15 μM and 5 μM, and the corresponding final concentration of Micro2: 0.1 mg/mL). To the reaction plate was added the mixed solution of ATP and the substrate at 1 μL/well.

Sequence of AP2-associated protein kinase 1 (Q2M2I8 whole entry): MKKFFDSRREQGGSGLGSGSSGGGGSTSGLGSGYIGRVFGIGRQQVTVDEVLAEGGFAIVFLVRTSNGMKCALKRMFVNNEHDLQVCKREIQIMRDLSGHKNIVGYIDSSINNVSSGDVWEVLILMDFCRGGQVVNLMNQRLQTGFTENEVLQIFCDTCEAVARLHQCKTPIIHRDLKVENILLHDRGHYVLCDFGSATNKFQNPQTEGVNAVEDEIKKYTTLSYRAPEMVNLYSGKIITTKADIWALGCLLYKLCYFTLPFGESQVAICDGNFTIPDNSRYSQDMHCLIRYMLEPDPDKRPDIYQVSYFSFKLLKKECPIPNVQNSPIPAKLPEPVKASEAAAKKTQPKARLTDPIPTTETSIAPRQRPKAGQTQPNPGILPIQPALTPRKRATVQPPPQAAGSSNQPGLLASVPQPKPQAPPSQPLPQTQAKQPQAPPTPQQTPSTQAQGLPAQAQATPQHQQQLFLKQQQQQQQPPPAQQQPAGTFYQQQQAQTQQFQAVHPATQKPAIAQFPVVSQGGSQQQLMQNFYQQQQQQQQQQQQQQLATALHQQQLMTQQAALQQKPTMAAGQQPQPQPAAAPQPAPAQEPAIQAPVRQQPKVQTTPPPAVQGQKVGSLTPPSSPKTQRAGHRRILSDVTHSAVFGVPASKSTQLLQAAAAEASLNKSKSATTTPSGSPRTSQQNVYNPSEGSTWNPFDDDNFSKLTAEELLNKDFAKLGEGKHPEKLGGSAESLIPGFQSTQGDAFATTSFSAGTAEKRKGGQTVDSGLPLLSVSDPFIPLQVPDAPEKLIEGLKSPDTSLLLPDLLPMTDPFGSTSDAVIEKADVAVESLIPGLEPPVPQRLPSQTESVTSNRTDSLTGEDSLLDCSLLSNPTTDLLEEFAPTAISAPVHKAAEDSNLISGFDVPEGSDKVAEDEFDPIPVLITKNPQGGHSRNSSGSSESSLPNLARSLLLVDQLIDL

IC50: 5.74 nM
SMILES: C=C(C)C[C@](C)(N)COc1cnc(-c2ccnc(NC(=O)OC)c2)cc1C(F)F [US20240343720, Compound 11]
